In general, IC50 refers to the midpoint of a concentration-inhibition curve.

Counter-ions that a name gives are not always drawn.

The test deals with T1, URAT-1 transporter (Homo sapiens, UniProt Q96S37).
T1 construct: expressed in transfected cells
T1 sequence (Q96S37 with tags, fused parts or gaps): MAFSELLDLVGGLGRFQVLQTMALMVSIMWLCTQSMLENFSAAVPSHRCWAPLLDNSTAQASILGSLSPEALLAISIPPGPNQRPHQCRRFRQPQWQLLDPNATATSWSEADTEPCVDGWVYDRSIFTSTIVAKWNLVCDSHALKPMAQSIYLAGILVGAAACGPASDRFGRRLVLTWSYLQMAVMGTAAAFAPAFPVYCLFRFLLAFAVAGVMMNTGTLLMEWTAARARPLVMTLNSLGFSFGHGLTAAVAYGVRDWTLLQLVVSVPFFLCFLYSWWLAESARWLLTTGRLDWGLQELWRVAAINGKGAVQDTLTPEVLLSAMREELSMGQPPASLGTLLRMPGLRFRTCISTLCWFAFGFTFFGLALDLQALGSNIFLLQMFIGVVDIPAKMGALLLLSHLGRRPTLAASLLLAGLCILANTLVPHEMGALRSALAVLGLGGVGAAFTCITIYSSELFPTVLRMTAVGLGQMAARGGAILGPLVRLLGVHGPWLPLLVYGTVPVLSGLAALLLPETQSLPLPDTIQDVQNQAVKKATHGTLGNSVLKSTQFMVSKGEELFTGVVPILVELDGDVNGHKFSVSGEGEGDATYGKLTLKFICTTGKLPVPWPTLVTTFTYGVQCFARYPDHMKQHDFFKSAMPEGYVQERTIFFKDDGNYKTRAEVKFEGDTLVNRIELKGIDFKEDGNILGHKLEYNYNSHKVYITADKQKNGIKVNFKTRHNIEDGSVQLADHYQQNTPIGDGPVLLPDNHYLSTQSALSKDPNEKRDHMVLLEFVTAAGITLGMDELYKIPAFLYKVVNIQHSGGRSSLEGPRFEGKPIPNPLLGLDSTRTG
Nature of the test: URAT-1 inhibitor activity: [14C]-uric acid uptake into CHO-URAT1(L)GFP#8 (CHO#8) cells, scintillation proximity. It counts as cell-based. A digest of the protocol: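 CHO cells stably expressing human URAT1 long isoform C-terminally fused to eGFP, preincubated 1 hour in chloride-containing buffer, then 15 minutes with compound (0–10 μM, 0.25% DMSO) in chloride-free buffer pH 7.4. [14C]-uric acid at 30 nM final added; uptake read by scintillation proximity after three hours at room temperature, dark.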
In general terms: SPA uses beads or plates that emit light when radiolabelled molecules are held near them.
The molecule `O=S(=O)(Nc1ncns1)c1ccc(Oc2ccc(F)c(F)c2)c(F)c1` [compound 195] gave an IC50 of 2.24 µM.
`O=S(=O)(Nc1ncns1)c1cc(F)c(Oc2ccc(F)c(F)c2)cc1F` [compound 196] had an IC50 of 1.58 µM.
In the case of `N#Cc1cc(S(=O)(=O)Nc2ncc(Cl)s2)ccc1Oc1ccc(F)c(F)c1` [compound 197, N-(5-chloro-1,3-thiazol-2-yl)-3-cyano-4-(3,4-difluorophenoxy)benzenesulfonamide] it was 0.225 µM; in that of `O=S(=O)(Nc1ncns1)c1cc(F)c(Oc2ccc(F)c(F)c2)c(F)c1` [compound 198], 2.19 µM.
In the case of `N#Cc1cc(Oc2ccc(S(=O)(=O)Nc3nncs3)cc2C#N)ccc1F` [compound 199] it was > 6.37 µM.
As to `Cc1cc(S(=O)(=O)Nc2nncs2)c(F)cc1Oc1ccc(F)c(F)c1` [compound 200], the IC50 is > 10 µM.
Then `N#Cc1cc(S(=O)(=O)Nc2nncs2)ccc1Oc1ccc(F)c(F)c1` [compound 201], with 0.651 µM; and `O=S(=O)(Nc1ncns1)c1ccc(Oc2ccc(F)c(F)c2)c(Cl)c1` [compound 202], with 0.823 µM; and `N#Cc1ccc(Oc2ccc(S(=O)(=O)Nc3nncs3)cc2Cl)cc1Cl` [compound 203], with 0.387 µM.
In the case of `O=S(=O)(Nc1nncs1)c1ccc(Oc2ccc(F)c(F)c2)c(Cl)c1` [compound 204] it was 0.317 µM; in that of `N#Cc1cc(Oc2c(F)cc(S(=O)(=O)Nc3ncns3)cc2F)ccc1F` [compound 205], > 6.81 µM; in that of `N#Cc1cc(Oc2ccc(S(=O)(=O)Nc3ncns3)cc2C#N)ccc1F` [compound 206], > 3.32 µM.
`N#Cc1cc(Oc2ccc(S(=O)(=O)Nc3ncns3)cc2Cl)ccc1F` [compound 207] returned a 50% inhibitory concentration (IC50) of 0.747 µM.
Then `N#Cc1ccc(Oc2cc(F)c(S(=O)(=O)Nc3ncns3)cc2F)cc1Cl` [compound 208, 4-(3-chloro-4-cyanophenoxy)-2,5-difluoro-N-(1,2,4-thiadiazol-5-yl)benzenesulfonamide], with 1.79 µM.
Then `O=S(=O)(Nc1nncs1)c1cc(F)c(Oc2ccc(F)c(F)c2)cc1F` [compound 209], with > 7.25 µM; and `N#Cc1ccc(Oc2ccc(S(=O)(=O)Nc3ncns3)cc2Cl)cc1Cl` [compound 210], with 1.61 µM.
In the case of `Cc1cc(S(=O)(=O)Nc2ncns2)ccc1Oc1ccc(F)c(F)c1` [compound 211] it was 1.11 µM.
`N#Cc1cc(S(=O)(=O)Nc2ncns2)ccc1Oc1ccc(F)c(F)c1` [compound 212] had a 50% inhibitory concentration (IC50) of 0.782 µM.
In the case of `N#Cc1cc(Oc2cc(F)c(S(=O)(=O)Nc3ncns3)cc2F)ccc1F` [compound 213] it was 2.04 µM.
In the case of `Cc1cc(S(=O)(=O)Nc2nncs2)c(F)cc1Oc1ccc(F)c(C#N)c1` [compound 214] it was > 10 µM; in that of `N#Cc1ccc(Oc2c(F)cc(S(=O)(=O)Nc3ncns3)cc2F)cc1Cl` [compound 215], > 10 µM.
In the case of `N#Cc1cc(Oc2ccc(S(=O)(=O)Nc3nncs3)cc2Cl)ccc1F` [compound 216] it was 1.42 µM; in that of `N#Cc1cc(Oc2cc(F)c(S(=O)(=O)Nc3nncs3)cc2F)ccc1F` [compound 217], > 10 µM; in that of `N#Cc1ccc(Oc2ccc(S(=O)(=O)Nc3ncns3)cc2C#N)cc1Cl` [compound 218], > 1.66 µM.
On to `N#Cc1ccc(Oc2ccc(S(=O)(=O)Nc3nncs3)cc2C#N)cc1Cl` [compound 219], for which half-maximal inhibition (IC50) required 0.426 µM.
`N#Cc1ccc(Oc2ccc(S(=O)(=O)Nc3cscn3)cc2C#N)cc1Cl` [compound 220, 4-(3-chloro-4-cyanophenoxy)-3-cyano-N-(1,3-thiazol-4-yl)benzenesulfonamide] had an IC50 of 0.11 µM.
Then `N#Cc1cc(Oc2cc(F)c(S(=O)(=O)Nc3cscn3)cc2F)ccc1F` [compound 221], with > 10 µM; and `N#Cc1cc(Oc2cc(F)c(S(=O)(=O)Nc3cscn3)cc2Br)ccc1F` [compound 222], with > 3.13 µM; and `Cc1cc(S(=O)(=O)Nc2cscn2)c(F)cc1Oc1ccc(F)c(F)c1` [compound 223], with > 10 µM.
Then `O=S(=O)(Nc1cscn1)c1ccc(Oc2ccc(F)c(F)c2)cc1F` [compound 224], with > 10 µM; and `N#Cc1ccc(Oc2ccc(S(=O)(=O)Nc3cscn3)c(F)c2)cc1Cl` [compound 225], with 0.3 µM.
In the case of `O=S(=O)(Nc1nccs1)c1ccc(Oc2ccc(F)c(F)c2)c(F)c1` [compound 226] it was > 10 µM; in that of `N#Cc1ccc(Oc2ccc(S(=O)(=O)Nc3cscn3)c(Cl)c2)cc1Cl` [compound 227], > 10 µM.
Consider `N#Cc1cc(S(=O)(=O)Nc2cscn2)ccc1Oc1ccc(F)c(F)c1` [compound 228, 3-cyano-4-(3,4-difluorophenoxy)-N-(1,3-thiazol-4-yl)benzenesulfonamide], for which the 50% inhibitory concentration (IC50) came out at 0.123 µM.
Regarding `O=S(=O)(Nc1cscn1)c1cc(Cl)c(Oc2ccc(F)c(F)c2)cc1F` [compound 229], the IC50 is > 10 µM.
With `N#Cc1ccc(Oc2cc(F)c(S(=O)(=O)Nc3cscn3)cc2F)cc1Cl` [compound 231], the IC50 was > 10 µM.
Then `N#Cc1ccc(Oc2ccc(S(=O)(=O)Nc3nccs3)cc2F)cc1Cl` [compound 232], with 0.513 µM; and `N#Cc1cc(Oc2ccc(S(=O)(=O)Nc3cscn3)c(F)c2)ccc1F` [compound 233], with > 10 µM; and `O=S(=O)(Nc1cscn1)c1cc(Br)c(Oc2ccc(F)c(F)c2)cc1F` [compound 234], with > 10 µM.
Consider `N#Cc1cc(Oc2cc(F)c(S(=O)(=O)Nc3cscn3)cc2Cl)ccc1F` [compound 235], for which the IC50 is > 10 µM.
Turning to `N#Cc1cc(Oc2ccc(S(=O)(=O)Nc3cscn3)c(Cl)c2)ccc1F` [compound 236], the IC50 was > 10 µM.
`O=S(=O)(Nc1cscn1)c1ccc(Oc2ccc(F)c(F)c2)cc1Cl` [compound 237]: the IC50 was > 10 µM.
In the case of `O=S(=O)(Nc1cscn1)c1cc(F)c(Oc2ccc(F)c(F)c2)cc1F` [compound 238] it was > 10 µM.
In the case of `N#Cc1ccc(Oc2cc(F)c(S(=O)(=O)Nc3cscn3)cc2Cl)cc1Cl` [compound 239], the half-maximal inhibitory concentration (IC50) is > 10 µM.
In the case of `N#Cc1cc(Oc2ccc(S(=O)(=O)Nc3cscn3)cc2I)ccc1F` [compound 240] it was 0.577 µM.
Then `O=S(=O)(Nc1cscn1)c1ccc(Oc2ccc(F)c(F)c2)c(I)c1` [compound 241], with > 10 µM; and `N#Cc1cc(Oc2ccc(S(=O)(=O)Nc3nccs3)cc2F)ccc1F` [compound 242], with 0.967 µM; and `N#Cc1cc(S(=O)(=O)Nc2ncns2)ccc1Oc1c(F)cccc1Cl` [compound 251], with 1.32 µM.
In the case of `Cc1cncc(Oc2ccc(S(=O)(=O)Nc3ncns3)cc2C#N)c1` [compound 252, trifluoroacetic acid salt] it was 1.11 µM; in that of `N#Cc1cc(S(=O)(=O)Nc2ncns2)ccc1Oc1cccnc1` [compound 253, trifluoroacetic acid salt], 2.13 µM.
As for `CSc1ncccc1Oc1ccc(S(=O)(=O)Nc2ncns2)cc1C#N` [compound 254, trifluoroacetic acid salt], half-maximal inhibition (IC50) was put at 0.878 µM.
Regarding `CCSc1ncccc1Oc1ccc(S(=O)(=O)Nc2ncns2)cc1C#N` [compound 255, trifluoroacetic acid salt], the concentration for half-maximal inhibition (IC50) was found to be 0.684 µM.
In the case of `COc1ccc(Oc2ccc(S(=O)(=O)Nc3ncns3)cc2C#N)c(C)c1` [compound 256] it was > 4.82 µM; in that of `COc1ccc(Oc2ccc(S(=O)(=O)Nc3ncns3)cc2C#N)cc1F` [compound 257], 1.2 µM; in that of `Cc1ccc(Oc2ccc(S(=O)(=O)Nc3ncns3)cc2C#N)cc1` [compound 258], 3.12 µM.
Take `CCOc1cc(C)ccc1Oc1ccc(S(=O)(=O)Nc2ncns2)cc1C#N` [compound 259]: the IC50 came to 3.13 µM.
Then `Cc1cccc(Oc2ccc(S(=O)(=O)Nc3ncns3)cc2C#N)c1` [compound 260], with 1.96 µM; and `COc1ccc(Cl)c(Oc2ccc(S(=O)(=O)Nc3ncns3)cc2C#N)c1` [compound 261], with 1.82 µM; and `CC(C)Oc1ccc(F)cc1Oc1ccc(S(=O)(=O)Nc2ncns2)cc1C#N` [compound 262], with 3.58 µM.
In the case of `COc1cccc(Cl)c1Oc1ccc(S(=O)(=O)Nc2ncns2)cc1C#N` [compound 263] it was 2.25 µM; in that of `COc1c(F)ccc(Oc2ccc(S(=O)(=O)Nc3ncns3)cc2C#N)c1C` [compound 264], 1.65 µM; in that of `COc1cccc(F)c1Oc1ccc(S(=O)(=O)Nc2ncns2)cc1C#N` [compound 265], 2.43 µM.
In the case of `COc1c(Oc2ccc(S(=O)(=O)Nc3ncns3)cc2C#N)ccc(F)c1C` [compound 266] it was 1.57 µM; in that of `COc1cc(Cl)ccc1Oc1ccc(S(=O)(=O)Nc2ncns2)cc1C#N` [compound 267], 0.93 µM; in that of `COc1ccc(Oc2ccc(S(=O)(=O)Nc3ncns3)cc2C#N)cc1Cl` [compound 268], 1.47 µM.
Regarding `COc1cc(Cl)cc(Oc2ccc(S(=O)(=O)Nc3ncns3)cc2C#N)c1` [compound 269], the half-inhibitory concentration (IC50) came out at 0.278 µM.
`COc1cc(F)c(F)cc1Oc1ccc(S(=O)(=O)Nc2ncns2)cc1C#N` [compound 270] came in with an IC50 of 0.957 µM.
In the case of `COc1ccccc1Oc1ccc(S(=O)(=O)Nc2ncns2)cc1C#N` [compound 271] it was 4.54 µM; in that of `Cc1ccncc1Oc1ccc(S(=O)(=O)Nc2ncns2)cc1C#N` [compound 272, trifluoroacetic acid salt], > 4.32 µM; in that of `CCc1ncccc1Oc1ccc(S(=O)(=O)Nc2ncns2)cc1C#N` [compound 273, trifluoroacetic acid salt], > 10 µM.
Then `CC(C)c1ncccc1Oc1ccc(S(=O)(=O)Nc2ncns2)cc1C#N` [compound 274, trifluoroacetic acid salt], with > 10 µM.
For `Cc1ccnc(C)c1Oc1ccc(S(=O)(=O)Nc2ncns2)cc1C#N` [compound 275, trifluoroacetic acid salt], the 50% inhibitory concentration (IC50) was > 10 µM.

These data come from patent publication US20140315933A1, “CHEMICAL COMPOUNDS” (Pfizer Limited, priority 2013, published 2014).
